US9757408B2 (Hayashibara Co., Ltd., priority 2010, dated 2017)
Marks after values point to notes of the source that are not given here.

What was measured:
[1] = tested on: KK-Ay mice; assay: KK-Ay mice kidney inflammation: body weight, kidney ratio, blood glucose, HbA1c, renal glomerulus consolidation (Experiment 14); type: in vivo; details: 10 weeks; for Percentage of subject with renal glomerulus solidification (++): (++) = at least 50% consolidation; for Blood glucose level: fasted 16 hours
Source text: Fifty KK-Ay mice, 5-week-old, male, commercialized by Japan Crea Co., Tokyo, Japan, were preliminary bred for one week on CE-2 feed commercialized by Japan Crea Co., Tokyo, Japan, measured for body weight and blood glucose level in blood samples collected from their tail veins, and randomly grouped into five groups, ten heads each, after balancing each measured value. One of the five groups was made into a control group and the mice of the group were allowed to take water freely and bred for 10 weeks (Experiment group 1). […] Throughout the periods of preliminary breeding and testing, the mice were bred while freely allowing them to take CE-2 feed at 22±2° C. under a light-dark cycle of 12 hours (lighting: from 7:00 to 19:00). At the termination of the test, the mice were evaluated based on their body weight, weight ratio of kidney, blood glucose level, hemoglobin A1c (HbA1c), and pathological findings of renal disorder by autopsy, and the percentage of mice with at least 50% consolidation (++) of renal glomerulus against the total glomus is shown in Table 15. The weight ratio of kidney was determined by dividing the weight of kidney by the body weight. The blood glucose level, HbA1c, and denatured score of renal glomerulus were determined by the following method.
At the termination of the test, the mice were fasted for 16 hours prior to autopsy and collected blood from their postcava for measurement of fasting glucose level. The blood glucose level was determined by “GLUCOSE CII-TEST WAKO”, a product name of a commercialized reagent for blood glucose level commercialized by Wako Pure Chemical Industries Ltd., Tokyo, Japan.
At the termination of the test, the mice were fasted for 16 hours before autopsy and collected blood from their postcava for measurement of interdigestive HbA1c level. The measurement was asked FALCO biosystems Ltd., Kyoto, Japan, a privately-owned clinical inspection institute.
At the autopsy, each mouse was collected his kidney which was then fixed with neutral buffered formalin, prepared into a pathologic tissue section in usual manner, and stained with hematoxylin-eosin staining (H-E staining) and PAS staining. For the stained pathologic tissue section of each mouse, they were compared with that of the control and the pathological findings by microscopic observation were judged based on the following criteria and scored for an index of the denaturation of renal disorder.
The degree of renal disorder was judged based on the degree of consolidation of renal glomerulus: The degree was judged based on the four grades; (++), meaning that at least 50% consolidation of renal glomerulus is observed against the total glomus; (+), meaning that at least 25% but below 50% consolidation of renal glomerulus is observed against the total glomus; (±), meaning that less than 25% consolidation of renal glomerulus is observed against the total glomus; and (−), meaning that no consolidation of renal glomerulus is observed against the total glomus. The pathological findings of kidney was judged based on an evaluation criterion for pathologic tissue (see, for example, the lines 12 to 21 at page 862 of “American Journal of Pathology”, Vol. 160, No. 3, pp. 861-867, 2002, by Andrea Hartner et al.).

[2] = tested on: IL-5 production of spleen cells; assay: IL-5 production of spleen cells stimulated with anti-CD3 antibody, from gel-treated mice (Experiment 16); type: in vivo, NC/Nga mice; details: for production level of IL-5 of spleen cells stimulated with the anti-CD3 antibody: compared to mice applied with gel prepared by adding refined water (Experiment group 1); for Content of IL-5: supernatant of spleen cells stimulated with anti-CD3 antibody, picryl chloride-sensitized mice applied with gel
Procedure: (§1) On Friday of the 6th week of the induction (46th day after initiating the application), all the mice were sacrificed, followed by isolating their spleens and collecting spleen cells in usual manner. […] To each well 2 μg/mL of “Purified Mouse CD3ε Monoclonal Antibody”, a product name of an anti-CD3 antibody, commercialized by Cosmo Bio Co., Ltd., Tokyo, Japan, was added, and the cells were incubated at 37° C. for three days in a 5% v/v CO2 incubator, followed by assaying the levels of cytokines in each supernatant thereof.
(§2) The results are in Table 19 in parallel.

[3] = tested on: IFN-γ production of spleen cells; assay: IFN-γ production of spleen cells stimulated with anti-CD3 antibody, from gel-treated mice (Experiment 16); type: in vivo, NC/Nga mice; details: for production level of IFN-γ of spleen cells stimulated with the anti-CD3 antibody: compared to mice applied with gel prepared by adding refined water (Experiment group 1); for Content of IFN-γ: supernatant of spleen cells stimulated with anti-CD3 antibody, picryl chloride-sensitized mice applied with gel
Procedure: as §1, §2

[4] = tested on: TNF-α production from NHEK cells; assay: TNF-α production from NHEK cells irradiated with ultraviolet B (Experiment 17); type: cell-based, human; details: for TNF-α: NHEK cells, stimulation by ultraviolet rays; for production of TNF-α from NHEK cells induced by ultraviolet rays: UVB 40 mJ/cm^2, supernatant at six hours
Procedure: “CELLMATRIX TYPE IV”, a product name of collagen for tissue culture commercialized by Nitta Gelatin Inc., Osaka, Japan, which had been diluted with PBS(K-) by 10 times, was previously placed in “FALCON 35-3001”, a product name of 35 mm petri dish commercialized by Becton Dickinson and Company, NJ, USA, in an amount of 1 mL/plate, and then allowed to stand at ambient temperature for 10 min, followed by removing an excessive amount of CELLMATRIX, drying the petri dish in air, and washing it thrice with PBS(K-). […] The cells were cultured at 37° C. in a 5% v/v CO2 incubator. On the 2nd and 4th days after the cell inoculation, the medium was replaced with EpiLife medium free of EDGS (1 mL/plate). On the 5th day after the cell inoculation, the supernatant was removed, and the petri dish was washed twice by adding 1 mL/petri dish of Hanks' balanced salt solution (called “HBSS (−) buffer”, hereinafter). Further, 2 mL/petri dish of HBSS (−) buffer was added to the petri dish which was then placed in the position 15 cm apart from an ultraviolet ray light source and irradiated with 40 mJ/cm^2 of ultraviolet B radiation. […] As an ultraviolet ray light source, “NS-8F”, a light source for actual use commercialized by Sanwa Medical Co., Ltd., Okayama, Japan, equipped with an ultraviolet B radiation lamp was used, and the radiation dose was measured on “UVR-305/365D (II)”, an ultraviolet ray meter commercialized by Topcon Corporation, Tokyo, Japan. TNF-α was assayed by the same method as in Experiment 2. The remaining other cytokines were assayed with an IL-1α assay kit, commercialized by R & D Systems Inc., MN, USA, and an IL-8 assay kit commercialized by BioLegend, CA, USA.

[5] = tested on: TNF-α production from mouse intraperitoneal macrophages; assay: IC50 for TNF-α production from mouse macrophages, LPS + IFN-γ, nucleic acid derivatives (Experiment 19); type: cell-based; details: for IC50: Mus musculus, Macrophage, 20 h, read-out: IC50 Concentration TNF-α
Source text: (§3) After completion of the culture, the supernatant in each well was collected and assayed for cytokines and prostaglandin E2 (called “PGE2”, hereinafter) with ELISA.

[6] = tested on: PGE2 production from mouse intraperitoneal macrophages; assay: IC50 for PGE2 production from mouse macrophages, LPS + IFN-γ (Experiment 19); type: cell-based; details: for IC50: Mus musculus, Macrophage, 20 h, read-out: IC50 Concentration PGE2
Source text: as §3

[7] = mouse intraperitoneal macrophages stimulated with LPS and IFN-γ

SMILES	HbA1c value ([1]; 94 mg/kg body weight/day)	Percentage of subject with renal glomerulus solidification (++) ([1]; 94 mg/kg body weight/day)	Blood glucose level ([1]; 94 mg/kg body weight/day)	production level of IL-5 of spleen cells stimulated with the anti-CD3 antibody [2]	Content of IL-5 [2]	production level of IFN-γ of spleen cells stimulated with the anti-CD3 antibody [3]	Content of IFN-γ [3]	TNF-α ([4]; 1 μM)	TNF-α ([4]; 5 μM)	TNF-α ([4]; 10 μM)	production of TNF-α from NHEK cells induced by ultraviolet rays [4]	IC50 [5]	IC50 [6]	other results
Nc1ncnc2c1ncn2[C@@H]1O[C@H](CO)[C@@H](O)[C@H]1O [AN, adenosine]	6.72%	100%	342 mg/dL	showed no difference	225 ng/mL	showed no difference	12.1 pg/mL	144 pg/mL	138 pg/mL	138 pg/mL	did not influence	17.4 µM	> 200 µM	inhibitory action on the production of inflammatory cytokines (in words) [5, 7]: only a weak inhibitory action
Nc1c2ncn([C@@H]3O[C@H](CO)[C@@H](O)[C@H]3O)c2nc[n+]1[O-] [ANO, adenosine N1-oxide]	–	–	–	tended to decrease	157 ng/mL	significantly lower	8.75* pg/mL	119 pg/mL	76 pg/mL	76 pg/mL	inhibited	0.3 µM	1.2 µM	HbA1c value ([1]; 30 mg/kg body weight/day): 6.79%; Percentage of subject with renal glomerulus solidification (++) ([1]; 30 mg/kg body weight/day): 50%; Blood glucose level ([1]; 30 mg/kg body weight/day): 304 mg/dL; HbA1c value ([1]; 100 mg/kg body weight/day, 100 mg/kg/day): 5.40* %; Percentage of subject with renal glomerulus solidification (++) ([1]; 100 mg/kg body weight/day): 30%; Blood glucose level ([1]; 100 mg/kg body weight/day): 305 mg/dL; HbA1c value ([1]; 100 mg/kg body weight/day, listed as adenosine N1-oxide, 100 mg/kg/day): 5.40%; inhibitory action on the production of PGE2 (in words) [6, 7]: showed an inhibitory action
OC[C@H]1O[C@@H](n2cnc3c(O)ncnc32)[C@H](O)[C@@H]1O [IN, inosine]	6.55%	80%	340 mg/dL	showed no difference	209 ng/mL	showed no difference	13.2 pg/mL	141 pg/mL	142 pg/mL	128 pg/mL	did not influence	> 200 µM	> 200 µM	–
